# Laboratory results reported in patent publication EP1350507A1, “Delivery of a substance to a pre-determinated site” (Applied NanoSystems B.V., priority 2002, dated 2003).
# Experiments:
# [1] = system: COS-7 cells; assay: Transfection of COS-7 cells with β-galactosidase reporter plasmid; assay type: cell-based
# Description: Transfections are carried out following standard protocols as is described in EP 0755924. In numerous publications variations of transfection protocols are given. A person acquainted with the field of non-viral transfections, in particular transfections using cationic amphiphiles will be able to use the cationic amphiphiles of the invention in transfection methods known per se. In standard experiments COS-7 cells are transfected with plasmid DNA containing the β-galactosidase reporter gene. Upon successful transfection the cell produces the enzyme β-galactosidase whose activity can be easily measured. […] Toxicity of the cationic amphiphiles towards the cells can be monitored qualitatively and quantitatively by visual inspection of the cells and by a protein determination.
# […] The plasmid concentration was determined by measuring the absoption at 260 nm using the relation 1.0 OD = 50 µg/ml. […]
# The complex of cationic amphiphile/DOPE (1:1) with pCMV β-gal was prepared at the charge ratio 2.5:1 (15 nmol lipid and 1 µg DNA), in 100µl 10 mM HEPES (pH=7.4, 150 mM NaCl). […] Control wells underwent identical steps except that no cationic amphiphile was added. β-galactosidase activity was observed whereas in control wells no activity was detected. […]
# [2] = system: COS-7 cells; assay: Toxicity of cationic amphiphile towards the cells (protein determination); assay type: cell-based; conditions: protein determination compared with control wells
# Description: Transfections are carried out following standard protocols as is described in EP 0755924. In numerous publications variations of transfection protocols are given. A person acquainted with the field of non-viral transfections, in particular transfections using cationic amphiphiles will be able to use the cationic amphiphiles of the invention in transfection methods known per se. In standard experiments COS-7 cells are transfected with plasmid DNA containing the β-galactosidase reporter gene. Upon successful transfection the cell produces the enzyme β-galactosidase whose activity can be easily measured. Other plasmids comprising alternative reporter genes such as the gene encoding Green Fluoerscent Protein or Chloroamphenicol Acetyl Transferase are suited as well. For analyzing stable transfection a plasmid containing the neomycin resistance gene can be used. Toxicity of the cationic amphiphiles towards the cells can be monitored qualitatively and quantitatively by visual inspection of the cells and by a protein determination.
# The complex of cationic amphiphile/DOPE (1:1) with pCMV β-gal was prepared at the charge ratio 2.5:1 (15 nmol lipid and 1 µg DNA), in 100µl 10 mM HEPES (pH=7.4, 150 mM NaCl). […] Control wells underwent identical steps except that no cationic amphiphile was added. β-galactosidase activity was observed whereas in control wells no activity was detected.
# [3] = Solvent scope of N,N'-dialkylaldaramides or N,N'-dialkylpentaramides (gelation behaviour in solvents); assay type: physicochemical
# Text: It will be understood that the use of the present gelling agents or thickeners to prepare a gel or to thicken a composition is also encompassed by the invention. As is well-known, gelling behavior of compounds or compositions is highly unpredictable. […] Preferably, the gelling phenomenon is thermoreversible.
# (§1) Preferred examples include aromatic and non-aromatic hydrocarbons, alcohols, ethers, esters, aldehydes, alkanoic acids, epoxides, amines, halogenated hydrocarbons, silicon oils, vegetable oils, phosphoric esters, sulfoxides and mixtures thereof. The compound also produces a gel in hydrophilic solvents such as water. The choice of composition for gelling can be tuned to the invented use. For instance in situations where clinical application of a vehicle of the invention is intended biocompatibility of the composition is preferred. In order to obtain a gel, the gelling agent or thickener is preferably mixed with the composition to be transformed to a gel in an amount of between 0.01 and 50 wt.%, based on the weight of the composition. In a preferred embodiment the mixture of the gelling agent or thickener and the composition is heated to allow for an even better gel formation or thickening. Typically, the heating will involve raising the temperature of the mixture to about 30 - 175 °C until a clear solution is obtained. In an alternative embodiment, the gelling agent is first dissolved in a polar or apolar solvent and then added to or sprayed into a composition or solvent to be converted into a gel.
# [4] = Concentration range of N,N'-dialkylaldaramides or N,N'-dialkylpentaramides in solvents; assay type: physicochemical
# Text: as §1
# [5] = Gelation experiment with dithienylcyclopentene derivatives (heat, cool, no gravitational flow; UV-vis/CD); assay type: physicochemical; conditions: for Solvents in which gelation did occur: cooling to room temperature, 1 ml solvent
# Description: In a typical gelation experiment, a carefully weighed amount of the dithienylcyclopentene derivative under investigation and 1 ml of the solvent are placed in a test tube, which is sealed and then heated until the compound is dissolved. The solution is allowed to cool to room temperature. […] The gelation process could be followed by UV-vis and CD spectroscopy as depicted in Figure 23. […] Increasing the concentration to 1.8 mM causes gelation of the solvent, which is accompanied by a change of the UV-visible spectrum, together with the appearance of a strong CD signal at 323 nm (Figure 22 A and B). Similar changes in the UV-vis and CD spectrum are observed upon gelation of the 1.8 mM solution of D in toluene by cooling to a temperature below the sol-gel phase transition(from here on referred to as gel(o). From a plot of the increase of the CD signal versus the temperature the sol-gel phase transition temperature of gel(o) was determined to be 29°C for a 1.8 mM solution of D in toluene.
# [6] = Photoswitching of a gel of compound D; assay type: physicochemical
# Description: In a typical photoswitching experiment a solution (1.8 mM) of Compound D in toluene was prepared by cooling from 70°C to the desired temperature (typically between 30°C and 60°C, i.e. above the gel-sol phase transition temperature of the open form of D) in a cuvette of 1 mm path length. This solution was then irradiated at λ1 = 313 nm to convert the ring-open form of Compound D to the ring-closed form. By using a 150 W Xe lamp and a 313 nm bandpass filter, the photostationary state (PSS) was reached typically within 10 minutes, which consist of 60mol% of the closed form and 40mol% of the open form.
# Gels of the closed form of D can also be dissolved by converting the closed form to the open form by irradiation with light of wavelength □□. Irradiation of gel(c,I) or gel(c,II) with □□ > 450 nm at while keeping the temperature between 30°C and 60°C causes dissolution of the gel to give a solution of the open form D, of which the UV-vis and CD spectra are identical to that of the starting solution. This process of gelation-dissolution by alternating irradiations with UV (313 nm) and Vis (> 450 nm) light can be repeated many times, showing that the photo-induced gelation process is fully reversible. In another experiment a solution (1.8 mM) of Compound D in toluene was prepared by cooling from 70°C to a temperature below the gel-sol phase transition temperature of the open form of (typically between 20°C and 29°C) in a cuvette of 1 mm path length.
# [7] = 1.8 mM in toluene, irradiation at 313 nm
compound,measurement,setting,value
"1-(9'-cis-octadecenyl)-4-(10""-cis-nonadecenyl) pyridinium Chloride",β-galactosidase activity,"[1]; cationic amphiphile/DOPE (1:1) with pCMV β-gal, charge ratio 2.5:1, assay 48 later",observed
same,β-galactosidase activity compared with Lipofectin™,"[1]; cationic amphiphile/DOPE (1:1), charge ratio 2.5:1",substantially higher
same,toxicity towards the cells,[2],no toxicity
"CC(C)=CCCC(C)CCNC(=O)[C@@H](O)[C@@H](O)[C@H](O)[C@@H](O)C(=O)NCCC(C)CCC=C(C)C (stereo partly shown) [CitGluCit, dicitronellyl glucaramide]",Solvent scope,[3]; Cyclohexane,"g. ,c*."
"CCCCCCCCCCCCNC(=O)[C@@H](O)[C@H](O)[C@H](O)[C@@H](O)C(=O)NCCCCCCCCCCCC [Compound 12Gal12, didodecyl galactaramide]",Solvent scope,"[3]; 1,2-Dichloro-ethane",n.s.
same,Solvent scope,[3]; Cyclohexane,n.s.
same,Solvent scope,[3]; Ethanol,n.s.
same,Solvent scope,[3]; Toluene,n.s.
same,Solvent scope,[3]; n-Butylacetate,n.s.
same,Solvent scope,[3]; water,n.s.
"O=C(NC1CCCCC1)[C@@H](O)[C@@H](O)[C@H](O)[C@@H](O)C(=O)NC1CCCCC1 [Compound C6GluC6, dicyclohexyl glucaramide]",Concentration range,"[4]; 1,2- Dichloroethane",<5.0%.
same,Concentration range,[4]; Cyclohexane,<2.5%.
same,Concentration range,[4]; Dow Corning 702,<2.5%.
same,Concentration range,[4]; Methyllaurate,<2.5%.
same,Concentration range,[4]; Toluene,<2.5%.
same,Concentration range,[4]; n-Butylacetate,<2.5%.
same,Solvent scope,"[3]; 1,2-Dichloro-ethane",g/c.
same,Solvent scope,[3]; Dimethylsulfoxide,g/c.
same,Solvent scope,[3]; Ethanol,g/c.
same,Solvent scope,[3]; water,n.s.
"O=C(NC1CCCCCCCCCCC1)[C@@H](O)[C@@H](O)[C@H](O)[C@@H](O)C(=O)NC1CCCCCCCCCCC1 [Compound C12GluC12, dicyclododecyl glucaramide]",Concentration range,"[4]; 1,2- Dichloroethane",<50%.
same,Concentration range,[4]; Cyclohexane,<5%.
same,Concentration range,[4]; Dow Corning 702,<50%
same,Concentration range,[4]; Methyllaurate,<5%.
same,Concentration range,[4]; Toluene,<50%.
same,Concentration range,[4]; n-Butylacetate,<50%.
same,Solvent scope,[3]; Dimethylsulfoxide,g/c.
same,Solvent scope,[3]; Ethanol,g/c.
same,Solvent scope,[3]; water,n.s.
"Cc1sc(C(=O)Nc2ccccc2)cc1C1=C(c2cc(C(=O)Nc3ccccc3)sc2C)CCC1 [Compound C, 1,2-Bis(5'-(anilinocarbonyl)-2'-methyl-thien-3'-yl) cyclopentene]",Solvents in which gelation did occur,[5],"1-phenyloctane, toluene, n-butylether, benzene, tetralin"
"Cc1sc(C(=O)N[C@H](C)c2ccccc2)cc1C1=C(c2cc(C(=O)N[C@H](C)c3ccccc3)sc2C)CCC1 [Compound D, 1,2-Bis(2'-methyl-5'-{[((R)-1-phenylethyl)amino]carbonyl}thien-3'-yl)cyclopentene]",sol-gel phase transition temperature of gel(o),"[5]; 1.8 mM solution in toluene, open form, from CD signal versus temperature",29 °C
same,Concentration that causes gelation of the solvent,[5]; Toluene,1800 µM
same,Solvents in which gelation did occur,[5],"cyclohexane, 1-phenyloctane, toluene, n-butyl ether, benzene, tetralin"
same,"sol-gel phase transition temperature of gel(c,I)",[6]; 1.8 mM in toluene after irradiation at 313 nm,62 °C
same,"Time without gel formation, solutions kept in the dark","[6]; 1.8 mM in toluene, between 20°C and 29°C, not irradiated",> 1 h
same,closed form in the photostationary state (PSS),[6]; [7],60 mol%
same,open form in the photostationary state (PSS),[6]; [7],40 mol%
same,Time to reach the photostationary state (PSS),"[6]; 1.8 mM in toluene, irradiation at 313 nm, 150 W Xe lamp",≤ 10 min
same,Increase of thermal stability compared to gel(o),"[6]; gel(c,I), toluene",more than 30 °C
"Cc1sc(C(=O)N[C@H](C)C2CCCCC2)cc1C1=C(c2cc(C(=O)N[C@H](C)C3CCCCC3)sc2C)CCC1 [Compound E, 1,2-Bis(2'-methyl-5'-{[((R)-1-cyclohexylethyl)amino]carbonyl}thien-3'-yl)cyclopentene]",Solvents in which gelation did occur,[5],"hexadecane, cyclohexane, 1-phenyloctane, toluene, n-butylether, benzene, tetralin, 1,4-dioxane, and n-butyl acetate"
